Measured values taken from patent US20070213291A1, “Therapeutically useful synthetic oligonucleotides” (priority 1999, published 2007).

Tests used:
[1] = test system: Jurkat human leukemia T cells; test: Inhibition of Jurkat human leukemia T cell proliferation (MTT reduction); format: cell-based; conditions: 100 μg/ml sequence, 48 h, 2.5×10^5 cells/ml
Method in brief: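 Read-out is MTT absorbance at 570 nm after 48 h. Sequences of 2 to 45 bases (A, C, G, T) tested at 100 μg/ml against untreated control, with 2.5×10^5 Jurkat cells/ml held at 37° C under 5% CO2.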

[2] = test system: MCF-7 human breast cancer cells; test: Inhibition of MCF-7 cell proliferation (MTT); format: cell-based; conditions: 100 μg/ml, 48 h, 5×10^5 cells/ml
Method in brief: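 Cells at 2.5×10^5 cells/ml (GT 3- and 6-base series at 5×10^5 cells/ml) treated with 100 μg/ml of 2-45-base oligonucleotide sequences versus untreated control for 48 h at 37 °C, 5% CO2. Proliferation read by MTT reduction at 570 nm.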

[3] = test system: Jurkat human leukemia T cells; test: Apoptosis by phosphatidylserine/annexin V-FITC flow cytometry; format: cell-based; conditions: 50 μM sequence
Method in brief: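 Jurkat cells were exposed to 3–7-base oligonucleotides (GT, ACGT, AG, GG, AGT, CGT sequences) at 50 μM. Separately, 6-base GT and complementary AC sequences, alone or hybridized 1:1 (10 min, 65 °C), were applied for 24 h. Phosphatidylserine exposure was quantified by flow cytometry with FITC-annexin V.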

[4] = test system: Jurkat human leukemia T cells; test: NuMA release into supernatant (ELISA); format: cell-based; conditions: Jurkat, 50 μM sequence
Method in brief: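 Jurkat T cells (1×10^6/ml) exposed to GT-containing oligonucleotide sequences, at 50 μM in some experiments, for 24 h in some experiments. NuMA released into the supernatant quantified by commercial ELISA.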

[5] = test system: LNCaP human prostate cancer cells; test: LNCaP human prostate cancer xenografts in male nude nu/nu mice; format: in vivo; conditions: after 4 weeks of treatment, compared with other groups (group 1 saline, group 5 BCG A-3)
Experimental: LNCaP human prostate cancer cells are implanted subcutaneously, as xenografts, in male nude nu/nu mice. The mice are divided into 5 groups of 10 mice. On day 0, group 1 mice receive saline, group 2 mice receive 3 base SEQ ID NO:8, group 3 mice receive 6 base GT SEQ ID NO:25, group 4 mice receive 6 base AG SEQ ID NO:45 and group 5 mice receive 45 base BCG A-3 SEQ ID NO:69. After 4 weeks of treatment, the mice are sacrificed and timor mass is determined.

[6] = test system: EL-4 murine T lymphoma cells; test: EL-4 murine T lymphoma in C57/BL6 mice; format: in vivo; conditions: after 4 weeks of treatment, compared with group 1 (saline)
Experimental: EL-4 murine T lymphoma cells are implanted into C57/BL6 mice. The mice are divided into 6 groups of 10 mice. On day 0, group 1 mice receive saline, group 2 mice receive 3 base GT SEQ ID NO:8, group 3 mice receive 6 base SEQ ID NO:25, group 4 mice receive 6 base AG SEQ ID NO:45, group 5 mice receive 18 base GT SEQ ID NO: 18 and group 6 mice receive 27 base GT SEQ ID NO:1. After 4 weeks of treatment, the mice are sacrificed and tumor mass is determined.

[7] = test system: PC-3 human prostate cancer cells; test: Inhibition of PC-3 cell proliferation (MTT); format: cell-based; conditions: 100 μg/ml, 48 h, 5×10^5 cells/ml
Experimental: (§1) Cells were seeded in 6 (1 ml/well), 24 (0.5 ml/well) or 96 (0.1 ml/well) well flat-bottom microplates and were maintained at 37° C. in a 5% CO2 atmosphere. Unless stated otherwise, 2.5×10^5 cells/ml were incubated with 0 μg/ml (control) and 100 μg/ml (treated) of 2 to 45 base sequences containing A, C, G and T for 48 h.
(§2) Cell proliferation was measured using dimethylthiazol-diphenyl-tetrazolium (MTT) reduction (Mosman et al. J. Immunol. Methods 65:55, 1983). MTT was measured at a wavelength of 570 nm using a multiplate spectrophotometer reader (ELX800, Bio-TEK Instruments Inc., Winooski, Vt.).
PC-3 prostate cancer cells are a p53 mutated, androgen-independent human solid tumor model. PC-3 cells (5×10^5 cells/ml) were incubated with 3 and 6 base GT sequences (Table 8).

[8] = test system: MCF-7 human breast cancer cells; test: Cell cycle stage in MCF-7 cells (propidium iodide flow cytometry); format: cell-based; conditions: MCF-7, 5×10^5 cells/ml, 24 h
Experimental: Cell cycle stage was determined using a […]™ PLUS DNA commercial kit (Becton Dickinson). Briefly, nuclei from cells were obtained by dissolving the cell membrane in a nonionic detergent, eliminating the cell cytoskeleton and nuclear proteins with trypsin, digesting the cellular RNA with RNase and stabilizing the nuclear chromatin with spermine. Propidium iodide was added to the cell nuclei and their fluorescence was analyzed in a flow cytometer equipped with electronic doublet discrimination capability (FACSCalibur, Becton Dickinson, San Jose, Calif.). Accumulation of cells in G0/G1, early S (SE), mid S (SM), late S (SL) or G2/M phases of the cell cycle was analyzed using MODFIT LT software (Verity Software House Inc., Topsham, Mass.).
Exponentially growing Jurkat human leukemia T cells (Table 28) and MCF-7 human breast cancer cells (5×10^5 cells/ml) (Table 29) were incubated for 24 h with 2, 6, 15, 18, 27 and 45 base sequences containing A, C, G and T. The cells were collected and centrifuged and cell cycle stage was determined.

[9] = test system: OVCAR-3 human ovarian cancer cells; test: Inhibition of OVCAR-3 cell proliferation (MTT); format: cell-based; conditions: 100 μg/ml, 48 h, 5×10^5 cells/ml
Experimental: as §1, §2
OVCAR-3 ovarian cancer cells are a p53 mutated, p21/waf-1/Cip deleted, metastatic human solid tumor model. OVCAR-3 cells (5×10^5 cells/ml) were incubated with 2, 6 and 18 base GT sequences and with a 6 base AGT sequence (Table 11).

[10] = test system: SK-OV-3 human ovarian cancer cells; test: Inhibition of SK-OV-3 cell proliferation (MTT); format: cell-based; conditions: 100 μg/ml, 48 h, 5×10^5 cells/ml
Experimental: as §1, §2
SK-OV-3 ovarian cancer cells are a p53 mutated, p21/waf-1/Cip deleted, p15^ink4B deleted, p16^Ink4 deleted, metastatichuman solid tumor model. SK-OV-3 cells (5×10^5 cells/ml) were incubated with 2, 6 and 18 base GT sequences (Table 12).

[11] = test system: THP-1 human acute monocytic leukemia cells; test: Cytokine production by THP-1 cells (ELISA); format: cell-based; conditions: THP-1, 1×10^6 cells, 100 μg/ml, 48 h
Method in brief: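 Read-out is fold increase in supernatant cytokine versus control cells, measured by ELISA (IL-12 ELISA counts p70 complex plus free p40). Unless noted, sequences were tested at 100 μg/ml on 1×10^6 cells, incubated 48 h, 37° C, 5% CO2.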

[12] = test system: EL-4 murine T lymphoma cells; test: Inhibition of EL-4 cell proliferation (MTT); format: cell-based; conditions: 100 μg/ml, 48 h
Experimental: as §1, §2
EL-4 murine lymphoma T cells are a suspension tumor model. EL-4 murine lymphoma T cells were incubated with 6, 18, 27 and 33 base GT sequences and with a 15 base ACG sequence (Table 18).

[13] = test system: Jurkat human leukemia T cells; test: Cell cycle stage in Jurkat cells (propidium iodide flow cytometry); format: cell-based; conditions: Jurkat, 24 h, 100 μg/ml
Method in brief: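 Phase distribution (G0/G1, early, mid and late S, G2/M) came from flow cytometry with doublet discrimination on propidium iodide-stained nuclei. Jurkat cells were given 24 h exposure to 2–45-base oligonucleotides, or at 1×10^6 cells/ml to single 6-base GT or AC strands heated 10 min at 65 °C or 1:1 hybridized duplex.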

Burkitt lymphoma cells = conditions: Mata et al. 1997; cited from earlier work

Sequence: GTG (chemistry not given here) [SEQ ID NO:8]
- % INHIBITION of Jurkat human leukemia T cell proliferation [1]: 46%
- % INHIBITION of MCF-7 human breast cancer cell proliferation [2]: 18%
- % of cells in apoptosis (positive for PS/A-V staining) [3]: 21%
- % NuMA released (treated vs untreated cells) [4]: 97%
- tumor mass [5]: less tumor mass than groups 1 and 5 mice
- tumor mass [6]: less tumor mass than group 1 mice
- % INHIBITION of PC-3 human prostate cancer cell proliferation [7]: 13%

Sequence: GTGTGTGTGTGTGTGTGT (unmodified DNA) [SEQ ID NO:18]
- % INHIBITION of Jurkat human leukemia T cell proliferation [1]: 60%
- % cells in phase: G0/G1 [8]: 25.3%
- % cells in phase: G2/M [8]: 15.7%
- % cells in phase: SE [8]: 31.6%
- % cells in phase: SL [8]: 10.5%
- % cells in phase: SM [8]: 16.9%
- Arrest (cell cycle) [8]: Mid SM
- % INHIBITION of OVCAR-3 human ovarian cancer cell proliferation [9]: 10%
- % INHIBITION of SK-OV-3 human ovarian cancer cell proliferation [10]: 6%
- ↑ IL-6 (fold increase treated vs control cells) [11]: 2.8x
- % INHIBITION of EL-4 murine T lymphoma cell proliferation [12]: −2%
- tumor mass [6]: less tumor mass than group 1 mice
- % of cells in phase: G0/G1 [13]: 24.2%
- % of cells in phase: G2/M [13]: 16.4%
- % of cells in phase: SE [13]: 26.7%
- % of cells in phase: SL [13]: 8.7%
- % of cells in phase: SM [13]: 24.0%
- Arrest (cell cycle) [13]: Mid SM

Sequence: TTAGGG (phosphorothioate backbone) [SEQ ID NO:49-phosphorothioate]
- induction of apoptosis in Burkitt lymphoma cells (Burkitt lymphoma cells): induce apoptosis in Burkitt lymphoma cells
- inhibition of telomerase activity (Burkitt lymphoma cells): inhibit telomerase activity
